In test [1] the target is T1, P236L viral reverse transcriptase (Human immunodeficiency virus type 1 group M subtype B, UniProt P04585, P823L).
T1 construct: P236L viral reverse transcriptase is obtained by PNAS 90: 4713-4717 (1993); made in house
The experiment in a line: inhibition of viral reverse transcriptase (P236L), cell free assay. The class given is biochemical. As to conditions: IC50 (Table I, P236L), 30 minutes at 37° C. An outline of the steps:
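E. coli-expressed wild-type or P236L RT extracts incubated with inhibitor 30 min at 37 °C in Tris pH 8.3 with MgCl₂, NaCl, DTT, NP-40, 10 μM [35S]-dNTP, poly rC/rG template and oligo dG/dT primer. Incorporated label counted on DE81 paper; reported as % inhibition and/or IC50.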

For test [2], the target named is T2, viral reverse transcriptase (Wild Type) (Human immunodeficiency virus type 1 group M subtype B, UniProt P04585).
T2 construct: Viral reverse transcriptase (Wild Type) is found in extracts from bacterial clones; made in house; host or cells: Escherichia coli
The experiment in a line: inhibition of viral reverse transcriptase (Wild Type), cell free assay. The class given is biochemical. As to conditions: for IC50: 30 minutes at 37° C., read-out: IC50 (Table II, Wild Type). The text has this:
The utility of the pyrimidine-thioalkyl and alkylether anti-AIDS compounds of Formula IA of this invention can be determined by their ability to inhibit viral reverse transcriptase, an enzyme essential for human immunodeficiency virus replication. This enzyme has characteristics which differentiate it from other known cellular polymerases and it is a unique enzyme which is not found in uninfected cells. Viral reverse transcriptase (Wild Type) is found in extracts from bacterial clones prepared according to the procedure described in AIDS Virus Reverse Transcriptase defined by high level expression in Escherichia coli, EMBO J. 6:3133-3137 (1987). P236L viral reverse transcriptase is obtained by PNAS 90: 4713-4717 (1993). Inhibition of this enzyme is determined in a cell free assay which measures the level of radioactive precursors incorporated into DNA. Extracts prepared according to the procedure of Science, 1125-1129 (1981) are incubated in a mixture of inhibitor, 20 mM dithiothreitol, 60 mM sodium chloride, 0.05% NP-40, 10 mM magnesium chloride, 50 mM Tris pH 8.3, 10 μM [^35 S]-labeled deoxynuleoside-5'-triphosphate, 10 μg/ml RNA template (poly rC or poly rG) and 5 μg/ml DNA primer (oligo dG or oligo dT) for 30 minutes at 37° C. Incorporation of radio-labeled percursor is determined by spotting aliquots of the reaction mixture on DE81 paper, washing the papers to remove unincorporated percursor, drying and determining counts. The results (IC50 means the concentration, in μM of drug, required to inhibit the reverse transcriptase activity (P236L and Wild Type) to the extent of 50%) of various assay(s) are combined and reported as % inhibition and/or IC50 (calculated) in Table I (P236L) and Table II (Wild Type).

Where a name gives a salt, the structure may show the parent alone.

By IC50 is commonly meant the concentration that inhibits the measured activity by half. With `Cc1cc2cc(C(C)Sc3nc(N)cc(Cl)n3)ncc2o1` (stereo not drawn) [Example 242, 4-Amino-6-chloro-2-(1-(2-methylfuro[2,3c]pyridine-5-yl)ethyl)thio-pyrimidine], the IC50 in test [1] amounted to 118 nM; in test [2], 282 nM.
A word on the inhibition: it is the relative decrease from the control value, in per cent. `CN(C(=O)/C=C/CSc1nc(N)cc(Cl)n1)c1ccccc1` [Example 200, (E)-N-methyl-N-phenyl-4-[(4-amino-6-chloro-2-pyrimidinyl)thio]-2-butenamide] displayed an IC50 in test [1] of 1000 nM. In addition, the inhibition at 10 µM in test [2] was found to be 57%.
For `CC(Sc1nc(N)cc(Cl)n1)c1cc(C2CCCC2)ccn1` (stereo not drawn) [Example 253], the half-inhibitory concentration (IC50) was 200 nM in test [1] and 203 nM in test [2].
On the same counts, the results for `CC(Sc1nc(N)cc(Cl)n1)c1cc(N(C)C)ccn1` (stereo not drawn) [Example 259] are 30 nM and 87 nM.
On the same counts, the results for `C=Cc1cc(C(C)Sc2nc(N)cc(Cl)n2)nc(Cl)c1OC` (stereo not drawn) [Example 244, 4-Amino-6-chloro-2-(1-(6-chloro-5-methoxy-4-vinyl-2-pyridyl)ethyl)thio-pyrimidine] are 186 nM and 141 nM.
On the same counts, the results for `CC(Sc1nc(N)cc(Cl)n1)c1cc2ccccc2cn1` (stereo not drawn) [Example 230, 4-Amino-6-chloro-2-(1-(3-isoquinolyl)ethyl)thio-pyrimidine] are 39 nM and 19 nM.
In the case of `CCN(CC)C(=O)/C=C/CSc1nc(N)cc(Cl)n1` [Example 194, (E)-N,N-Diethyl-4-[(4-amino-6-chloro-2-pyrimidinyl)thio]-2-butenamide], the concentration for half-maximal inhibition (IC50) is 34 nM in test [1] and 49 nM in test [2].
For `CCc1ccnc([C@@H](C)Sc2nc(N)cc(Cl)n2)c1` [Example 291, R-(+)-4-Amino-6-chloro-2-(1-(4-ethyl-2-pyridyl)ethyl)thio-pyrimidine], the half-inhibitory concentration (IC50) in test [1] turned out to be 80 nM; in test [2], 187 nM.
For `CC(Sc1nc(N)cc(C(F)(F)F)n1)c1cc(C(C)(C)C)ccn1` (stereo not drawn) [Example 269, 4-amino-6-trifluoromethyl-2-(1-(4-(1-dimethylethyl)-2-pyridyl)-ethyl)thio-pyrimidine], in that order: 200 nM and 441 nM.
For `Cc1ccnc(C(C)Sc2nc(N)cc(Cl)n2)c1` (stereo not drawn) [Example 215, 4-Amino-6-chloro-2-(1-(4-methyl-2-pyridyl)ethyl)thio-pyrimidine hydrochloride], in that order: 33 nM and 17 nM.
On the same counts, the results for `CCN(CC)C(=O)/C=C/C(C)Sc1nc(N)cc(Cl)n1` (stereo not drawn) [Example 207, (E)-N,N-Diethyl-4-[(4-amino-6-chloro-2-pyrimidinyl)thio]-2-pentenamide] are 68 nM and 49 nM.
Regarding `CC(Sc1nc(N)cc(Cl)n1)c1cc2c(C(F)(F)F)coc2cn1` (stereo not drawn) [Example 294], the concentration for half-maximal inhibition (IC50) in test [1] worked out at 104 nM; in test [2], 233 nM.
Compound `Clc1nc(SCc2ccc3ccccc3c2)nc2c1CCN2` [Example 281, 4-chloro-2-(naphthylmethyl)thio-5,6-dihydro-7H-pyrrolo[2,3-d]pyrimidine] displayed a 50% inhibitory concentration (IC50) in test [1] of 1000 nM. Also, the inhibition at 50 µM in test [2] came out at 56%.
For `CCNC(=O)/C=C/CSc1nc(N)cc(Cl)n1` [Example 196, (E)-N-ethyl-4-[(4-amino-6-chloro-2-pyrimidinyl)thio]-2-butenamide], in that order: 10000 nM and 71%.
As for `Cc1cc2cc(C(C)Sc3nc(N)cc(C(F)(F)F)n3)nc(Cl)c2o1` (stereo not drawn) [Example 241, 4-Amino-6-trifluoromethyl-2-(1-(7-chloro-2-methylfuro[2,3c]pyridine-5-yl)ethyl)thio-pyrimidine], the half-maximal inhibitory concentration (IC50) in test [1] stood at 334 nM; in test [2], 82 nM.
On the same counts, the results for `CCc1coc2cnc(C(C)Sc3nc(N)cc(Cl)n3)cc12` (stereo not drawn) [Example 249, 4-Amino-6-chloro-2-(1-(3-ethylfuro[2,3c]pyridine-5-yl)ethyl)thio-pyrimidine] are 10 nM and 23 nM.
For `CC(C)c1cncc(C(C)Sc2nc(N)cc(Cl)n2)c1` (stereo not drawn) [Example 260, 4-amino-6-chloro-2-(1-(5-(1-methylethyl)-3-pyridyl)-ethyl)thio-pyrimidine], in that order: 30 nM and 70 nM.
On the same counts, the results for `CC(Sc1nc(N)cc(Cl)n1)c1cc2c(cn1)OCC2` (stereo not drawn) [Example 247, 4-Amino-6-chloro-2-(1-(2,3-dihydrofuro[2,3c]pyridine-5-yl)ethyl)thio-pyrimidine] are 61 nM and 72 nM.
As for `CC(C)c1ccnc(CSc2nc(N)cc(C(F)(F)F)n2)c1` [Example 271, 4-amino-6-trifluoromethyl-2-((4-(1-methylethyl)2-pyridyl)methyl)thio-pyrimidine], the results for the IC50 in test [1] and in test [2] were 50 nM and 31 nM, respectively.
Take `Cc1coc2cnc([C@H](C)Sc3nc(N)cc(C(F)(F)F)n3)cc12` [Example 297, (S)-(-)-4-Amino-6-trifluoromethyl-2-(l1-(3-methylfuro[2,3c]pyridin-5-yl)ethylthio)-pyrimidine]: the 50% inhibitory concentration (IC50) turned out to be 64 nM in test [1] and 78 nM in test [2].
For the compound `CC(C)Oc1ccnc(C(C)Sc2nc(N)cc(Cl)n2)c1` (stereo not drawn) [Example 263], the concentration for half-maximal inhibition (IC50) in test [1] was 100 nM. In test [2], this compound returned an inhibition at 1 µM of 86%.
As to `CC(Sc1nc(N)cc(Cl)n1)c1ccccn1` (stereo not drawn) [Example 211, 4-Amino-6-chloro-2-(1-(2-pyridyl)ethyl)thio-pyrimidine], the IC50 in test [1] worked out at 46 nM; in test [2], 190 nM.
In test [1], `COC(=O)/C=C(\C)CSc1nc(N)cc(Cl)n1` [Example 208, (E)-4-[(4-Amino-6-chloro-2-pyrimidinyl)thio]-3-methyl-2-butenoic acid methyl ester] gave an IC50 of 1000 nM. The inhibition at 10 µM in test [2] worked out at 79%.
Turning to `CC(Sc1nc(N)cc(Cl)n1)c1cc2c(c(Cl)n1)OCC2(C)C` (stereo not drawn) [Example 250, 4-Amino-6-chloro-2-(1-(7-chloro-3,3-dimethyl-2,3-dihydrofuro[2,3c]pyridine-5-yl)ethyl)thio-pyrimidine], the half-maximal inhibitory concentration (IC50) in test [2] was determined as 153 nM.
On the same count and under the same terms, then `CC(C)c1coc2cnc(C(C)Sc3nc(N)cc(Cl)n3)cc12` (stereo not drawn) [Example 252, 4-Amino-6-chloro-2-(1-(3-(1-methylethyl)furo[2,3c]-pyridin-5-yl)ethyl)thio-pyrimidine], with 175 nM.
`CCOC(=O)c1cc(N)nc(SCc2ccc3ccccc3c2)n1` [Example 305, 6-amino-2-(2-naphthylmethylthio)-pyrimidine-4-carboxylic acid ethyl ester] came in with an inhibition at 50 µM in test [2] of 21%.
As to `COC(=O)/C=C(\C)C(C)Sc1nc(N)cc(Cl)n1` (stereo not drawn) [Example 209, (E)-4-[(4-Amino-6-chloro-2-pyrimidinyl)thio]-3-methyl-2-pentenoic acid methyl ester], in test [2], 10 µM produced 67% inhibition.
In turn, `Nc1cc(Cl)nc(SCc2cnc3occc3c2)n1` [Example 304, 4-amino-6-chloro-2-(furo[2,3-b]pyridin-5-yl-methylthio)-pyrimidine] returned an inhibition at 1 µM in test [2] of 94%.
For the compound `Cc1ccnc(C(Sc2nc(N)cc(Cl)n2)C2CC2)c1` (stereo not drawn) [Example 226, 4-Amino-6-chloro-2-(1-(4-methyl-2-pyridyl)-1-cyclopropyl-methyl)thio-pyrimidine mesylate], the inhibition at 50 µM in test [2] is 79%.
Regarding `CC(Sc1nc(N)c(Br)c(Cl)n1)c1nccc2c1CCCC2` (stereo not drawn) [Example 236, 4-Amino-5-bromo-6-chloro-2-(1-(1-(5,6,7,8-tetrahydroisoquinolyl))ethyl)thio-pyrimidine], the inhibition at 1 µM in test [2] came out at 58%.
On the same count and under the same terms, to `Cc1ccnc(C(C)(C)Sc2nc(N)cc(Cl)n2)c1` [Example 213] belongs 72%; to `CN(C)C(=O)/C=C/CSc1nc(N)cc(Cl)n1` [Example 204, (E)-N,N-Dimethyl-4-[(4-amino-6-chloro-2-pyrimidinyl)thio]-2-butenamide], 78%; to `CCN(C)C(=O)/C=C/CSc1nc(N)cc(Cl)n1` [Example 203, (E)-N-ethyl-N-methyl-4-[(4-amino-6-chloro-2-pyrimidinyl)thio]-2-butenamide], 96%.
In test [2], `C=CCN(C)C(=O)/C=C/CSc1nc(N)cc(Cl)n1` [Example 201, (E)-N-allyl-N-methyl-4-[(4-amino-6-chloro-2-pyrimidinyl)thio]-2-butenamide] gave an inhibition at 1 µM of 80%.

The values above are taken from patent US6043248A, “Alpha-substituted pyrimidine-thioalkyl and alkylether compounds as inhibitors of viral reverse transcriptase” (priority 1997, dated 2000).
